Results taken from the supplement of paper PMC10307832.

Legend:
Test in all cases: relative viability (nuclei count vs DMSO), 5 days (fraction); higher = more cells survive
YM155 + Pemetrexed = compound: COCC[n+]1c2c(n(Cc3cnccn3)c1C)C(=O)c1ccccc1C2=O [YM155] + Nc1nc2[nH]cc(CCc3ccc(C(=O)N[C@@H](CCC(=O)O)C(=O)O)cc3)c2c(=O)[nH]1 [Pemetrexed] (partner 0.2 µM)
Summary of the method: (§1)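 After 5 days of treatment, lung cancer cells in 1536-well plates were fixed and stained in a single step (final 0.05% Triton X-100, 1% formaldehyde, 1 ug/ml Hoechst) and their nuclei counted on 4× images. Treatment had been applied by pin tool the day after seeding as one drug alone or as a fixed anchor-drug dose with five library-drug doses (not always all listed) in √10 steps. Relative viability is the nuclei count of treated wells divided by that of vehicle wells, and values are medians of duplicate plates.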

YM155 + Crizotinib = compound: COCC[n+]1c2c(n(Cc3cnccn3)c1C)C(=O)c1ccccc1C2=O [YM155] + C[C@@H](Oc1cc(-c2cnn(C3CCNCC3)c2)cnc1N)c1c(Cl)ccc(F)c1Cl [Crizotinib] (partner 1 µM)
Summary of the method: as §1

YM155 + Olaparib = compound: COCC[n+]1c2c(n(Cc3cnccn3)c1C)C(=O)c1ccccc1C2=O [YM155] + O=C(c1cc(Cc2n[nH]c(=O)c3ccccc23)ccc1F)N1CCN(C(=O)C2CC2)CC1 [Olaparib] (partner 8 µM)
Summary of the method: as §1

Quizartinib + Linsitinib = compound: CC(C)(C)c1cc(NC(=O)Nc2ccc(-c3cn4c(n3)sc3cc(OCCN5CCOCC5)ccc34)cc2)no1 [Quizartinib] + C[C@]1(O)C[C@@H](c2nc(-c3ccc4ccc(-c5ccccc5)nc4c3)c3c(N)nccn32)C1 [Linsitinib] (partner 1 µM)
Summary of the method: as §1

| Cell Line | relative viability (YM155 + Pemetrexed; first compound 0.002 µM) | relative viability (YM155 + Pemetrexed; first compound 0.006325 µM) | relative viability (YM155 + Pemetrexed; first compound 0.02 µM) | relative viability (YM155 + Pemetrexed; first compound 0.06325 µM) | relative viability (YM155 + Crizotinib; first compound 0.002 µM) | relative viability (YM155 + Crizotinib; first compound 0.006325 µM) | relative viability (YM155 + Crizotinib; first compound 0.02 µM) | relative viability (YM155 + Crizotinib; first compound 0.06325 µM) | relative viability (YM155 + Olaparib; first compound 0.002 µM) | relative viability (YM155 + Olaparib; first compound 0.006325 µM) | relative viability (YM155 + Olaparib; first compound 0.02 µM) | relative viability (YM155 + Olaparib; first compound 0.06325 µM) | relative viability (Quizartinib + Linsitinib; first compound 0.001 µM) | relative viability (Quizartinib + Linsitinib; first compound 0.003162 µM) | relative viability (Quizartinib + Linsitinib; first compound 0.01 µM) | relative viability (Quizartinib + Linsitinib; first compound 0.03162 µM) | relative viability (Quizartinib + Linsitinib; first compound 0.1 µM) |
| --- | --- | --- | --- | --- | --- | --- | --- | --- | --- | --- | --- | --- | --- | --- | --- | --- | --- |
| HCC-827 | 0.301 | 0.328 | 0.253 | 0.303 | 0.866 | 0.968 | 0.918 | 0.89 | 0.708 | 0.649 | 0.654 | 0.702 | 0.99 | 0.924 | 1.05 | 0.962 | 0.994 |
| HOP-62 | 0.372 | 0.365 | 0.325 | 0.289 | 0.91 | 1.01 | 0.919 | 0.983 | 0.668 | 0.35 | 0.419 | 0.29 | 1.02 | 0.933 | 0.822 | 0.913 | 1.07 |
| IA-LM | – | – | – | – | 0.825 | 0.766 | 0.685 | 0.548 | 0.836 | 0.891 | 0.879 | 0.642 | 0.518 | 0.657 | 0.652 | 0.724 | 0.679 |
| LC-2-ad | 0.287 | 0.248 | 0.28 | 0.262 | 0.446 | 0.428 | 0.496 | 0.453 | 0.718 | 0.685 | 0.695 | 0.617 | 0.77 | 0.782 | 0.909 | 0.76 | 0.605 |
| LCLC-97TM1 | – | 0.193 | 0.181 | 0.18 | 0.401 | 0.4 | 0.442 | 0.318 | – | 0.321 | 0.311 | 0.376 | – | 0.148 | 0.185 | 0.174 | 0.21 |
| LCLC-103H | 0.473 | 0.453 | 0.416 | 0.463 | 0.971 | 1.03 | 1.03 | 1 | 0.738 | 0.845 | 0.77 | 0.801 | 0.946 | 1.05 | 1.06 | 1.2 | 0.882 |
| LK-2 | 0.276 | 0.287 | 0.263 | 0.364 | 0.226 | 0.236 | 0.214 | 0.241 | 0.644 | 0.71 | 0.797 | 0.75 | 0.479 | 0.617 | 0.621 | 0.523 | 0.521 |
| LOU-NH91 | 0.361 | 0.356 | 0.346 | 0.343 | 0.735 | 0.688 | 0.731 | 0.727 | 0.894 | 0.874 | 0.921 | 0.745 | 0.899 | 0.954 | 0.996 | 0.825 | 1.11 |
| LU99A | 0.164 | 0.2 | 0.153 | 0.177 | 0.499 | 0.549 | 0.633 | 0.474 | 0.269 | 0.236 | 0.255 | 0.262 | 0.509 | 0.504 | 0.628 | 0.497 | 0.417 |
| LXF-289 | 0.855 | 0.914 | 0.827 | 0.783 | 0.812 | 0.787 | 0.867 | 0.684 | 0.984 | 1.04 | 1.04 | 0.947 | 0.899 | 0.944 | 1.02 | 0.958 | 0.92 |
| NCI-H23 | – | 0.655 | 0.646 | 0.549 | 0.527 | 0.607 | 0.47 | 0.234 | – | 0.323 | 0.294 | 0.235 | – | 0.577 | 0.615 | 0.555 | 0.661 |
| NCI-H322M | 0.504 | 0.613 | 0.576 | 0.622 | 0.822 | 0.906 | 0.949 | 0.578 | 0.719 | 0.815 | 0.706 | 0.734 | 0.798 | 1.01 | 1.02 | 0.917 | 0.92 |
| NCI-H522 | 0.841 | 0.938 | 0.92 | 0.899 | – | – | – | – | 0.727 | 0.646 | 0.594 | 0.612 | – | – | – | – | – |
| NCI-H727 | – | – | – | – | 0.828 | 0.821 | 0.868 | 0.738 | 0.775 | 0.722 | 0.66 | 0.729 | 0.164 | – | 0.387 | 0.309 | 0.174 |
| NCI-H1299 | – | – | – | – | 0.92 | 0.953 | 0.951 | 0.767 | 1 | 0.998 | 0.971 | 0.875 | 0.952 | 0.95 | 0.987 | 1.02 | 1.01 |
| NCI-H1395 | 0.857 | 0.737 | 1.03 | 0.906 | – | – | – | – | 0.489 | 0.457 | 0.46 | 0.456 | 1.06 | 1.37 | 0.985 | 1.04 | 1.22 |
| NCI-H1563 | 0.753 | 0.726 | 0.86 | 0.745 | 0.915 | 0.802 | 0.838 | 0.886 | – | – | – | – | 1.01 | 1.04 | 1.17 | – | 0.972 |
| NCI-H1650 | 0.35 | 0.348 | 0.321 | 0.249 | 0.924 | 0.974 | 0.717 | 0.286 | 0.781 | 0.699 | 0.491 | 0.194 | – | – | – | – | – |
| NCI-H1703 | – | – | – | – | 0.612 | 0.13 | 0.459 | 0.175 | 0.499 | 0.403 | 0.346 | 0.387 | 0.832 | 0.456 | 0.165 | 0.162 | 0.231 |
| NCI-H1793 | 0.708 | 0.896 | 1.03 | 0.954 | – | – | – | – | 0.847 | 0.824 | 0.91 | 0.575 | 0.833 | 0.896 | 0.843 | 0.885 | 0.829 |
| NCI-H2170 | 0.253 | 0.256 | 0.271 | 0.264 | 1.13 | 1.18 | 1.24 | 1.18 | 0.605 | 0.583 | 0.668 | 0.62 | – | – | – | – | – |
| NCI-H2342 | 0.75 | 0.742 | 0.764 | 0.788 | – | – | – | – | 0.356 | 0.386 | 0.473 | 0.445 | – | – | – | – | – |
| SW 900 | – | 0.492 | 0.489 | 0.47 | – | – | – | – | – | 0.788 | 0.848 | 0.808 | – | – | – | – | – |
